Results: PMC5218480 (PLoS ONE, 2017)

Test system: MV-4-11 cells
Test: Gene expression microarray analysis (Affymetrix PrimeView) and GSEA
Type: cell-based, human
Design: RFU PODN (11730768_x_at) / Fold change /veh PODN (11730768_x_at) / RFU LINC00158 (11744669_a_at) / Fold change /veh LINC00158 (11744669_a_at) / RFU DUSP10 (11751237_a_at) / Fold change /veh DUSP10 (11751237_a_at) / RFU ID3 (11757404_x_at) / Fold change /veh ID3 (11757404_x_at) / RFU PLEKHG5 (11737974_s_at) / Fold change /veh PLEKHG5 (11737974_s_at) / RFU LRRC4B (11730491_at) / Fold change /veh LRRC4B (11730491_at) / RFU GIMAP4 (11747438_a_at) / Fold change /veh GIMAP4 (11747438_a_at) / RFU KRT8 (11758183_x_at) / Fold change /veh KRT8 (11758183_x_at) / RFU CNN1 (11734310_a_at) / Fold change /veh CNN1 (11734310_a_at) / RFU VPS37D (11726825_at) / Fold change /veh VPS37D (11726825_at) / RFU C10orf10 (11716522_x_at) / Fold change /veh C10orf10 (11716522_x_at) / RFU KIR2DL2 /// KIR2DL4 /// KIR2DL5A /// KIR2DL5B /// KIR2DS1 /// KIR2DS2 /// KIR2DS3 /// KIR2DS4 /// KIR3DL3 /// KIR3DL3 /// KIR3DS1 (11738374_at) / Fold change /veh KIR2DL2 /// KIR2DL4 /// KIR2DL5A /// KIR2DL5B /// KIR2DS1 /// KIR2DS2 /// KIR2DS3 /// KIR2DS4 /// KIR3DL3 /// KIR3DL3 /// KIR3DS1 (11738374_at) / RFU C1QL1 (11718748_at) / Fold change /veh C1QL1 (11718748_at) / RFU TMPRSS4 (11747572_a_at) / Fold change /veh TMPRSS4 (11747572_a_at) / RFU HAMP (11756126_x_at) / Fold change /veh HAMP (11756126_x_at) / RFU RNFT2 (11725882_a_at) / Fold change /veh RNFT2 (11725882_a_at) / RFU NR4A2 (11747474_a_at) / Fold change /veh NR4A2 (11747474_a_at) / RFU ABCC12 (11746883_a_at) / Fold change /veh ABCC12 (11746883_a_at) / RFU TMEM136 (11760407_x_at) / Fold change /veh TMEM136 (11760407_x_at) / RFU CLDN22 /// WWC2 (11732394_at) / Fold change /veh CLDN22 /// WWC2 (11732394_at) / RFU HLA-DPB1 (11760878_x_at) / Fold change /veh HLA-DPB1 (11760878_x_at) / RFU SPINT1 (11716480_a_at) / Fold change /veh SPINT1 (11716480_a_at) / RFU GAP43 (11754022_s_at) / Fold change /veh GAP43 (11754022_s_at) / RFU A4GNT (11735810_at) / Fold change /veh A4GNT (11735810_at) / RFU PRB3 (11715151_x_at) / Fold change /veh PRB3 (11715151_x_at) / RFU TUBB4B (11761932_at) / Fold change /veh TUBB4B (11761932_at) / RFU CAPN14 (11732068_a_at) / Fold change /veh CAPN14 (11732068_a_at) / RFU TMCC2 (11721928_a_at) / Fold change /veh TMCC2 (11721928_a_at) / RFU IRGQ (11745062_a_at) / Fold change /veh IRGQ (11745062_a_at) / RFU FAM174B (11720279_a_at) / Fold change /veh FAM174B (11720279_a_at) / RFU TMPRSS4 (11748680_a_at) / Fold change /veh TMPRSS4 (11748680_a_at) / RFU FAM212B (11763350_a_at) / Fold change /veh FAM212B (11763350_a_at) / RFU PLEKHG5 (11743358_a_at) / Fold change /veh PLEKHG5 (11743358_a_at) / RFU ZSCAN30 (11745921_a_at) / Fold change /veh ZSCAN30 (11745921_a_at) / RFU CMKLR1 (11741424_a_at) / Fold change /veh CMKLR1 (11741424_a_at) / RFU LOC101060620 /// MAPK8IP1 (11723275_at) / Fold change /veh LOC101060620 /// MAPK8IP1 (11723275_at) / RFU SPTSSB (11747773_x_at) / Fold change /veh SPTSSB (11747773_x_at) / RFU PRSS12 (11739890_at) / Fold change /veh PRSS12 (11739890_at) / RFU BIN1 (11741810_x_at) / Fold change /veh BIN1 (11741810_x_at) / RFU WNT11 (11732464_a_at) / Fold change /veh WNT11 (11732464_a_at) / RFU C10orf10 (11716521_a_at) / Fold change /veh C10orf10 (11716521_a_at) / RFU C5orf56 (11738089_at) / Fold change /veh C5orf56 (11738089_at) / RFU CYB561 (11721691_x_at) / Fold change /veh CYB561 (11721691_x_at) / RFU ANKRD19P (11752326_a_at) / Fold change /veh ANKRD19P (11752326_a_at) / RFU OR2T12 /// OR2T33 /// OR2T8 (11738714_s_at) / Fold change /veh OR2T12 /// OR2T33 /// OR2T8 (11738714_s_at) / RFU VCAN (11748164_a_at) / Fold change /veh VCAN (11748164_a_at) / RFU JSRP1 (11732532_at) / Fold change /veh JSRP1 (11732532_at) / RFU KRTAP10-11 (11738290_x_at) / Fold change /veh KRTAP10-11 (11738290_x_at) / RFU MYO3A (11730013_a_at) / Fold change /veh MYO3A (11730013_a_at) / RFU EBF3 (11725865_a_at) / Fold change /veh EBF3 (11725865_a_at) / RFU CAMK2N1 (11719241_x_at) / Fold change /veh CAMK2N1 (11719241_x_at) / RFU C5orf56 (11738088_a_at) / Fold change /veh C5orf56 (11738088_a_at) / RFU OLFML3 (11715873_a_at) / Fold change /veh OLFML3 (11715873_a_at) / RFU LOC100653217 /// NTM (11731650_a_at) / Fold change /veh LOC100653217 /// NTM (11731650_a_at) / RFU MAPK11 (11762145_a_at) / Fold change /veh MAPK11 (11762145_a_at) / RFU FIZ1 (11724087_x_at) / Fold change /veh FIZ1 (11724087_x_at) / RFU OASL (11726364_x_at) / Fold change /veh OASL (11726364_x_at) / RFU SOX15 (11748057_x_at) / Fold change /veh SOX15 (11748057_x_at) / RFU CD79A (11719716_a_at) / Fold change /veh CD79A (11719716_a_at) / RFU HIST1H1D (11736915_at) / Fold change /veh HIST1H1D (11736915_at) / RFU CASKIN2 (11723855_a_at) / Fold change /veh CASKIN2 (11723855_a_at) / RFU LOC730098 (11760151_x_at) / Fold change /veh LOC730098 (11760151_x_at) / RFU OR4N2 (11742367_at) / Fold change /veh OR4N2 (11742367_at) / RFU PRRT2 (11749266_a_at) / Fold change /veh PRRT2 (11749266_a_at) / RFU SNX32 (11753110_a_at) / Fold change /veh SNX32 (11753110_a_at) / RFU CDHR5 (11726645_a_at) / Fold change /veh CDHR5 (11726645_a_at) / RFU RCAN1 (11760418_a_at) / Fold change /veh RCAN1 (11760418_a_at) / RFU FAM167A (11723789_a_at) / Fold change /veh FAM167A (11723789_a_at) / RFU FAM26E (11764081_at) / Fold change /veh FAM26E (11764081_at) / RFU ISYNA1 (11749810_s_at) / Fold change /veh ISYNA1 (11749810_s_at) / RFU ACY1 (11761880_at) / Fold change /veh ACY1 (11761880_at) / RFU 11764098_at / Fold change /veh 11764098_at / RFU SAMD14 (11745864_x_at) / Fold change /veh SAMD14 (11745864_x_at) / RFU NPB (11741838_a_at) / Fold change /veh NPB (11741838_a_at) / RFU TMPRSS6 (11731388_a_at) / Fold change /veh TMPRSS6 (11731388_a_at) / RFU KRTAP10-2 (11738614_at) / Fold change /veh KRTAP10-2 (11738614_at) / RFU ARHGAP8 /// PRR5-ARHGAP8 (11727945_x_at) / Fold change /veh ARHGAP8 /// PRR5-ARHGAP8 (11727945_x_at) / RFU KRTAP5-7 /// NADSYN1 (11734609_at) / Fold change /veh KRTAP5-7 /// NADSYN1 (11734609_at) / RFU RASL12 (11751679_a_at) / Fold change /veh RASL12 (11751679_a_at) / RFU CDKN2B (11736163_a_at) / Fold change /veh CDKN2B (11736163_a_at) / RFU PRF1 (11729649_at) / Fold change /veh PRF1 (11729649_at) / RFU, ZNF638 /// ZNF638-IT1 / Fold change vs veh, ZNF638 /// ZNF638-IT1 / RFU, PANK3 / Fold change vs veh, PANK3 / RFU, SH3YL1 / Fold change vs veh, SH3YL1 / RFU, ZEB2 / Fold change vs veh, ZEB2 / RFU, NRIP1 / Fold change vs veh, NRIP1 / RFU, PTTG1IP / Fold change vs veh, PTTG1IP / RFU, CAPN2 / Fold change vs veh, CAPN2 / RFU, MED14 / Fold change vs veh, MED14 / RFU, SNORA58 / Fold change vs veh, SNORA58 / RFU, C1orf63 / Fold change vs veh, C1orf63 / RFU, LRRFIP1 / Fold change vs veh, LRRFIP1 / RFU, NDUFAF7 / Fold change vs veh, NDUFAF7 / RFU, SLC12A2 / Fold change vs veh, SLC12A2 / RFU, IBTK / Fold change vs veh, IBTK / RFU, ESF1 / Fold change vs veh, ESF1 / Fold change vs veh, TMEM50B / RFU, TAOK1 / Fold change vs veh, TAOK1 / RFU, ACBD3 / Fold change vs veh, ACBD3 / RFU, TMA16 / Fold change vs veh, TMA16 / RFU, RWDD3 / Fold change vs veh, RWDD3 / RFU, BCAT1 / Fold change vs veh, BCAT1 / RFU, EDEM3 / Fold change vs veh, EDEM3 / RFU, TMEM33 / Fold change vs veh, TMEM33 / RFU, WDR75 / Fold change vs veh, WDR75 / RFU, AHCTF1 / Fold change vs veh, AHCTF1 / RFU, TFRC / Fold change vs veh, TFRC / RFU, ZDHHC17 / Fold change vs veh, ZDHHC17 / RFU, NOM1 / Fold change vs veh, NOM1 / RFU, ARL8B / Fold change vs veh, ARL8B / RFU, ZBTB11 / Fold change vs veh, ZBTB11 / RFU, TAMM41 / Fold change vs veh, TAMM41 / RFU, KIAA1704 /// LOC100996395 / Fold change vs veh, KIAA1704 /// LOC100996395 / RFU, ING1 / Fold change vs veh, ING1 / RFU, TRMT61B / Fold change vs veh, TRMT61B / RFU, FUBP3 / Fold change vs veh, FUBP3 / RFU, TP53 / Fold change vs veh, TP53 / RFU, TNKS2 / Fold change vs veh, TNKS2 / RFU, ZFP14 / Fold change vs veh, ZFP14 / RFU, ACTR2 / Fold change vs veh, ACTR2 / RFU, PPP3R1 / Fold change vs veh, PPP3R1 / RFU, PIK3R1 / Fold change vs veh, PIK3R1 / RFU, HNRNPA1 / Fold change vs veh, HNRNPA1 / RFU, RNF170 / Fold change vs veh, RNF170 / RFU, ZNF28 / Fold change vs veh, ZNF28 / RFU, RNGTT / Fold change vs veh, RNGTT / RFU, OGT / Fold change vs veh, OGT / RFU, BRD1 / Fold change vs veh, BRD1 / RFU, MARS / Fold change vs veh, MARS / RFU, ZNF655 / Fold change vs veh, ZNF655 / RFU, FAHD1 / Fold change vs veh, FAHD1 / RFU, BDP1 / Fold change vs veh, BDP1 / RFU, LRRCC1 / Fold change vs veh, LRRCC1 / RFU, ARID1A / Fold change vs veh, ARID1A / RFU, ZNF146 / Fold change vs veh, ZNF146 / RFU, ZNF330 / Fold change vs veh, ZNF330 / RFU, GPN3 / Fold change vs veh, GPN3 / RFU, C9orf123 / Fold change vs veh, C9orf123 / RFU, N4BP2L2 / Fold change vs veh, N4BP2L2 / RFU, ARFIP1 / Fold change vs veh, ARFIP1 / RFU, FAM179B / Fold change vs veh, FAM179B / RFU, BCL10 / Fold change vs veh, BCL10 / RFU, UHRF1BP1L / Fold change vs veh, UHRF1BP1L / RFU, BET1 / Fold change vs veh, BET1 / RFU, CNOT2 / Fold change vs veh, CNOT2 / RFU, ZNF268 / Fold change vs veh, ZNF268 / Fold change vs veh, ZNF507 / RFU, DGCR2 / Fold change vs veh, DGCR2 / RFU, WDSUB1 / Fold change vs veh, WDSUB1 / Fold change vs veh, HSP90B1 /// MIR3652 / RFU, ADSS / Fold change vs veh, ADSS / RFU, GK / Fold change vs veh, GK / RFU, ZNF148 / Fold change vs veh, ZNF148 / RFU, TAF9 / Fold change vs veh, TAF9 / RFU, SLC1A5 / Fold change vs veh, SLC1A5 / RFU, SLMO2 / Fold change vs veh, SLMO2 / RFU, ABCC4 / Fold change vs veh, ABCC4 / RFU, LOC101060439 /// RAP1B / Fold change vs veh, LOC101060439 /// RAP1B / RFU, RFX7 / Fold change vs veh, RFX7 / RFU, GTPBP10 / Fold change vs veh, GTPBP10 / RFU, CNEP1R1 / Fold change vs veh, CNEP1R1 / RFU, BIVM-ERCC5 /// ERCC5 / Fold change vs veh, BIVM-ERCC5 /// ERCC5 / RFU, ILF3 / Fold change vs veh, ILF3 / RFU 11762660_at / Fold change /veh 11762660_at / RFU VCAN (11757783_s_at) / Fold change /veh VCAN (11757783_s_at) / RFU DDX43 (11728927_at) / Fold change /veh DDX43 (11728927_at) / RFU KRT8 (11758188_x_at) / Fold change /veh KRT8 (11758188_x_at) / RFU NKD1 (11759106_at) / Fold change /veh NKD1 (11759106_at) / RFU SRD5A1 (11742802_a_at) / Fold change /veh SRD5A1 (11742802_a_at) / RFU TPSAB1 /// TPSB2 (11721975_s_at) / Fold change /veh TPSAB1 /// TPSB2 (11721975_s_at) / RFU GSTM3 (11746129_a_at) / Fold change /veh GSTM3 (11746129_a_at) / RFU IL23R (11737362_x_at) / Fold change /veh IL23R (11737362_x_at) / RFU TMEM51 (11727254_a_at) / Fold change /veh TMEM51 (11727254_a_at) / RFU PIWIL2 (11732686_x_at) / Fold change /veh PIWIL2 (11732686_x_at) / RFU ORM1 (11744905_x_at) / Fold change /veh ORM1 (11744905_x_at) / RFU CCDC152 (11743942_at) / Fold change /veh CCDC152 (11743942_at) / RFU ECM1 (11717891_a_at) / Fold change /veh ECM1 (11717891_a_at) / RFU IL23R (11748794_a_at) / Fold change /veh IL23R (11748794_a_at) / RFU TNFAIP8L3 (11732012_x_at) / Fold change /veh TNFAIP8L3 (11732012_x_at) / RFU MBOAT4 (11741988_at) / Fold change /veh MBOAT4 (11741988_at) / RFU 11764193_at / Fold change /veh 11764193_at / RFU TMEM53 (11763286_at) / Fold change /veh TMEM53 (11763286_at) / RFU MAGEB2 (11727129_at) / Fold change /veh MAGEB2 (11727129_at) / RFU TMEM200A (11744735_a_at) / Fold change /veh TMEM200A (11744735_a_at) / RFU CCDC152 (11751479_a_at) / Fold change /veh CCDC152 (11751479_a_at) / RFU FAM211A (11726209_a_at) / Fold change /veh FAM211A (11726209_a_at) / RFU RGS16 (11746705_a_at) / Fold change /veh RGS16 (11746705_a_at) / RFU VCAN (11755009_s_at) / Fold change /veh VCAN (11755009_s_at) / RFU RHOB (11743442_s_at) / Fold change /veh RHOB (11743442_s_at) / RFU RGS16 (11720943_a_at) / Fold change /veh RGS16 (11720943_a_at) / RFU RGS16 (11720944_at) / Fold change /veh RGS16 (11720944_at) / RFU, VPS4B / Fold change vs veh, VPS4B / RFU, CREB1 / Fold change vs veh, CREB1 / RFU, DNAJC13 / Fold change vs veh, DNAJC13 / RFU, GNAQ / Fold change vs veh, GNAQ / RFU, CDK5R1 / Fold change vs veh, CDK5R1 / RFU, ZRANB3 / Fold change vs veh, ZRANB3 / RFU, CUL4A / Fold change vs veh, CUL4A / RFU, CCNY / Fold change vs veh, CCNY / RFU, UFL1 / Fold change vs veh, UFL1 / RFU, COG3 / Fold change vs veh, COG3 / RFU, DIAPH2 / Fold change vs veh, DIAPH2 / RFU, SKA2 / Fold change vs veh, SKA2 / RFU, AFF3 / Fold change vs veh, AFF3 / RFU, LMF1 / Fold change vs veh, LMF1 / RFU, IPO11 / Fold change vs veh, IPO11 / RFU, DFFB / Fold change vs veh, DFFB / RFU, FOXP1 / Fold change vs veh, FOXP1 / RFU, CARD8 / Fold change vs veh, CARD8 / RFU, STRN3 / Fold change vs veh, STRN3 / RFU, ADK / Fold change vs veh, ADK / RFU, RASSF2 / Fold change vs veh, RASSF2 / RFU, WIPF1 / Fold change vs veh, WIPF1 / RFU, LARP1B / Fold change vs veh, LARP1B / RFU, RASA1 / Fold change vs veh, RASA1 / RFU, RB1 / Fold change vs veh, RB1 / RFU, PPFIA1 / Fold change vs veh, PPFIA1 / RFU, MAT2A / Fold change vs veh, MAT2A / RFU, CCT5 / Fold change vs veh, CCT5 / RFU, WDR92 / Fold change vs veh, WDR92 / RFU, CUX1 / Fold change vs veh, CUX1 / RFU, TTC7A / Fold change vs veh, TTC7A / RFU, TMEM135 / Fold change vs veh, TMEM135 / RFU, DEPTOR / Fold change vs veh, DEPTOR / RFU, CPM / Fold change vs veh, CPM / RFU, DNAJB6 / Fold change vs veh, DNAJB6 / RFU, CACNA2D3 / Fold change vs veh, CACNA2D3 / RFU, DTX4 / Fold change vs veh, DTX4 / RFU, TFCP2 / Fold change vs veh, TFCP2 / RFU, GMCL1 /// GMCL1P1 / Fold change vs veh, GMCL1 /// GMCL1P1 / RFU, AEBP2 / Fold change vs veh, AEBP2 / RFU, SNHG1 /// SNORD22 /// SNORD25 /// SNORD26 /// SNORD27 /// SNORD28 /// SNORD29 /// SNORD31 / Fold change vs veh, SNHG1 /// SNORD22 /// SNORD25 /// SNORD26 /// SNORD27 /// SNORD28 /// SNORD29 /// SNORD31 / Fold change (Aza/veh), C12orf56 (ProbeSet 11735607_a_at) / Fold change (ACY-1035/veh), C12orf56 (ProbeSet 11735607_a_at) / Fold change (Aza/veh), FGFR1OP (ProbeSet 11751329_s_at) / Fold change (ACY-1035/veh), FGFR1OP (ProbeSet 11751329_s_at) / Fold change (Aza/veh), VPS36 (ProbeSet 11739960_a_at) / Fold change (ACY-1035/veh), VPS36 (ProbeSet 11739960_a_at) / RFU SYPL1 (11715823_x_at) / Fold change /veh SYPL1 (11715823_x_at) / RFU IGFBP7 (11715501_s_at) / Fold change /veh IGFBP7 (11715501_s_at) / RFU REEP3 (11722064_at) / Fold change /veh REEP3 (11722064_at) / RFU IGLL1 (11728026_x_at) / Fold change /veh IGLL1 (11728026_x_at): dose or concentration left out as unconfirmed
Settings: MV-4-11 cells, 48 hours

Nc1ccc(-c2cccs2)cc1NC(=O)c1ccc2c(c1)cc(C1CC1)n2CCN1CCOCC1 [ACY-1035]
RFU CAMK2N1 (11719241_x_at): 51.25 RFU
